Paper PMC8608967, “KDS2010, a Newly Developed Reversible MAO-B Inhibitor, as an Effective Therapeutic Candidate for Parkinson’s Disease” (Neurotherapeutics, 2021)
Where two headings read alike, the source gives them in different places.

Key:
[1] = biological target: T1, human recombinant MAO-A (hMAO-A) (Homo sapiens, UniProt P21397); experiment: In vitro MAO-A enzyme assay (H2O2 release, absorbance 570 nm); type: biochemical; conditions: substrate p-tyramine, read-out: Inhibition (IC50) MAO-A
T1 construct: purchased Sigma Aldrich
T1 sequence (P21397 1-527): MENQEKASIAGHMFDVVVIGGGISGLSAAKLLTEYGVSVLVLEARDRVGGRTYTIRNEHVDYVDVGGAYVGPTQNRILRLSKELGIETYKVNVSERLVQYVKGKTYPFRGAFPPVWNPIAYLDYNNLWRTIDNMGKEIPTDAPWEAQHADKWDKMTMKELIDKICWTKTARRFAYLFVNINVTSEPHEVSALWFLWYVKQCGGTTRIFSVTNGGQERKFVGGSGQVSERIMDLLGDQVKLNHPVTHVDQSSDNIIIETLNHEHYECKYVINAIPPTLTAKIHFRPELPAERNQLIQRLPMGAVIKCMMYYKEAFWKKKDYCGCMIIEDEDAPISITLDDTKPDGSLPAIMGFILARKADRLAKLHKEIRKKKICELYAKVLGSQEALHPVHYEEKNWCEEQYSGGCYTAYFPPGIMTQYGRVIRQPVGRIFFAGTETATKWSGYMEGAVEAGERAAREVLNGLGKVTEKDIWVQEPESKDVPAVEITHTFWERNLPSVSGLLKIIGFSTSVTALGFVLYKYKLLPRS
Protocol: (§1) In brief, human recombinant MAO-A (hMAO-A) and MAO-B (hMAO-B) (Sigma Aldrich) were diluted in 50 mM phosphate buffer (~ 0.3 μg MAO-A protein/well or ~ 2.5 μg MAO-B protein/well), and the test compound was added in DMSO to a final concentration from 0.1 nM to 10 μM. The amount of hydrogen peroxide (H2O2) released after addition of enzyme substrate (p-tyramine for MAO-A or benzylamine for MAO-B) was quantified by measuring the absorbance increase at 570 nm on a microplate reader.

[2] = biological target: T2, human recombinant MAO-B (hMAO-B) (Homo sapiens, UniProt P27338); experiment: In vitro MAO-B enzyme assay (H2O2 release, absorbance 570 nm); type: biochemical; conditions: for IC50: hMAO-B, substrate benzylamine, read-out: Inhibition (IC50) MAO-B; for SI (selectivity index), IC50(MAO-A)/IC50(MAO-B): selectivity for MAO-B isoform
T2 construct: purchased Sigma Aldrich
T2 sequence (P27338 1-520): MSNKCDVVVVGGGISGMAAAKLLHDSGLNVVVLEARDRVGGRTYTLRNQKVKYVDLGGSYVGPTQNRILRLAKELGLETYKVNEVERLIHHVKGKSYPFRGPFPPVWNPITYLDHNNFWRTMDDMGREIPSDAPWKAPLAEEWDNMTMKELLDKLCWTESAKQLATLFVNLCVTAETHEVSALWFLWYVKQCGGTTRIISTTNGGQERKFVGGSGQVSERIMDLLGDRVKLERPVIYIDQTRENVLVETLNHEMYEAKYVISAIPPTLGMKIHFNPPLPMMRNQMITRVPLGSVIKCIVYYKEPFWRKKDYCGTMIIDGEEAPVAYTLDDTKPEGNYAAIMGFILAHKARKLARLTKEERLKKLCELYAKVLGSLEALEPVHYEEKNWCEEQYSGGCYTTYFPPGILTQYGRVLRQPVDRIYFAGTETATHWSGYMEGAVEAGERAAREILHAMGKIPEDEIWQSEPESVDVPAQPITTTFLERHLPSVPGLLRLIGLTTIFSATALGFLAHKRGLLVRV
Protocol: as §1

[3] = biological target: T1, human recombinant MAO-A (hMAO-A); conditions: ref Park, JH. et al. Science Advances. 5(3), eaav0136 (2019), read-out: Inhibition (IC50) MAO-A; cited from earlier work
[4] = biological target: T2, human recombinant MAO-B (hMAO-B); conditions: cited from earlier work; for IC50: read-out: Inhibition (IC50) MAO-B; for SI (selectivity index), IC50(MAO-A)/IC50(MAO-B): selectivity for MAO-B isoform
[5] = test system: MPTP-induced PD mouse model; experiment: MPTP mouse model: vertical grid test and coat hanger test; type: in vivo; conditions: MPTP mice; long-term (30-day) treatment, 10 mg/kg/day oral
Protocol: Group allocation and outcome assessment, but not the conduct of experiments and data analysis, were performed in a blinded manner. Throughout the study, confounders were not controlled. An acclimation period of 7 days was allowed for animals to stabilize in a new environment before model induction. […] Treatment drugs were dissolved in 100 μL of water and total dose (in mg) was calculated according to individual body weight (in kg).
The MPTP model was established using the acute regimen of four intraperitoneal (i.p.) injections of MPTP-HCl (M0896, Sigma Aldrich, 2 mg/mL in saline, 20 mg/kg for one injection) at 2-h intervals.
Motor deficits of the MPTP-induced PD mouse model were assessed using the vertical grid test as described in the previous study [23]. Briefly, after 2 days of habituation to the testing apparatus, individual mice were gently placed 3 cm from the top, facing upward, and allowed to turn around and climb down. We also performed a coat hanger test as described [24–26]. Briefly, a mouse was gently hung on the middle of a coat hanger and allowed to ascend to the top. Performance was graded as follows: 0, falling off the hanger within 20 s; 1, moving to the side-bar of the hanger; 2, reaching the side-bar of the hanger; 3, climbing the side-bar of the hanger; 4, moving to the top of the hanger; 5, climbing and reaching the safe zone. The test was performed twice and each trial lasted a maximum of 3 min.

[6] = hMAO-B, ref Park, JH. et al. Science Advances. 5(3), eaav0136 (2019)
[7] = ref Park, JH. et al. Science Advances. 5(3), eaav0136 (2019)

SMILES	IC50 [1]	IC50 [2]	melting point	SI (selectivity index), IC50(MAO-A)/IC50(MAO-B) [2]	other results
CS(=O)(=O)O.NC(=O)CNCc1ccc(-c2ccccc2)cc1 [Compound 17a]	> 100 µM	> 10 µM	233 to 236 °C	–	–
NC(=O)CNCc1ccc(-c2ccc(F)cc2)cc1 [Compound 17d]	> 100 µM	> 10 µM	238 to 242 °C	–	–
NC(=O)CNCc1ccc(-c2cccc(Cl)c2)cc1 [Compound 17f]	> 100 µM	1.56 ± 0.071 µM	165 to 168 °C	> 64	–
NC(=O)CNCc1ccc(-c2ccc(Cl)cc2)cc1 [Compound 17g]	> 100 µM	1.43 ± 0.1 µM	262 to 266 °C	> 70	–
NC(=O)CNCc1ccc(-c2cccc(C(F)(F)F)c2)cc1 [Compound 17i]	> 100 µM	0.999 ± 0.059 µM	168 to 169 °C	> 100	–
NC(=O)CNCc1ccc(-c2ccc(C(F)(F)F)cc2)cc1 [Compound 17j]	> 100 µM	0.121 ± 0.08 µM	255 to 256 °C	> 826	fold increase in the IC50 for MAO-B inhibition versus 18j (KDS2010) ([2]; substitution of CH3 with H at X): 15 fold
NC(=O)CNCc1ccc(-c2cccc(OC(F)(F)F)c2)cc1 [Compound 17k]	> 100 µM	0.323 ± 0.088 µM	152 to 156 °C	> 310	–
NC(=O)CNCc1ccc(-c2ccc(OC(F)(F)F)cc2)cc1 [Compound 17l]	> 100 µM	0.137 ± 0.07 µM	217 to 220 °C	> 730	–
COc1ccc(-c2ccc(CNCC(N)=O)cc2)cc1 [Compound 17n]	> 100 µM	> 10 µM	243 to 245 °C	–	–
C[C@H](NCc1ccc(-c2ccccc2)cc1)C(N)=O [Compound 18a]	–	–	252 to 256 °C	–	IC50 [3]: > 100 µM; IC50 [4, 6]: > 10 µM
C[C@H](NCc1ccc(-c2ccccc2F)cc1)C(N)=O [Compound 18b]	–	–	131 to 135 °C	–	IC50 [3]: > 100 µM; SI (selectivity index), IC50(MAO-A)/IC50(MAO-B) [4, 7]: > 12
C[C@H](NCc1ccc(-c2cccc(F)c2)cc1)C(N)=O [Compound 18c]	–	–	235 to 238 °C	–	IC50 [3]: > 100 µM; SI (selectivity index), IC50(MAO-A)/IC50(MAO-B) [4, 7]: > 27
C[C@H](NCc1ccc(-c2ccc(F)cc2)cc1)C(N)=O [Compound 18d]	–	–	162 to 164 °C	–	IC50 [3]: > 100 µM; SI (selectivity index), IC50(MAO-A)/IC50(MAO-B) [4, 7]: > 23
C[C@H](NCc1ccc(-c2ccccc2Cl)cc1)C(N)=O [Compound 18e]	–	–	216 to 220 °C	–	IC50 [3]: > 100 µM; IC50 [4, 6]: > 10 µM
C[C@H](NCc1ccc(-c2cccc(Cl)c2)cc1)C(N)=O [Compound 18f]	–	–	220 to 223 °C	–	IC50 [3]: > 100 µM; IC50 [4, 6]: 0.242 ± 0.008 µM; SI (selectivity index), IC50(MAO-A)/IC50(MAO-B) [4, 7]: > 413
C[C@H](NCc1ccc(-c2ccc(Cl)cc2)cc1)C(N)=O [Compound 18g]	–	–	220 to 223 °C	–	IC50 [3]: > 100 µM; IC50 [4, 6]: 0.182 ± 0.007 µM; SI (selectivity index), IC50(MAO-A)/IC50(MAO-B) [4, 7]: > 549
C[C@H](NCc1ccc(-c2ccccc2C(F)(F)F)cc1)C(N)=O [Compound 18h]	–	–	224 to 227 °C	–	IC50 [3]: > 100 µM; IC50 [4, 6]: > 10 µM
C[C@H](NCc1ccc(-c2cccc(C(F)(F)F)c2)cc1)C(N)=O [Compound 18i]	–	–	215 to 217 °C	–	IC50 [3]: > 100 µM; IC50 [4, 6]: 0.316 ± 0.006 µM; SI (selectivity index), IC50(MAO-A)/IC50(MAO-B) [4, 7]: > 316
C[C@H](NCc1ccc(-c2cccc(OC(F)(F)F)c2)cc1)C(N)=O [Compound 18k]	–	–	209 to 212 °C	–	IC50 [3]: > 100 µM; SI (selectivity index), IC50(MAO-A)/IC50(MAO-B) [4, 7]: > 463
COc1ccc(-c2ccc(CN[C@@H](C)C(N)=O)cc2)cc1 [Compound 18n]	> 100 µM	3.33 ± 0.054 µM	231 to 233 °C	> 30	–
CC(C)Cc1ccc(-c2ccc(CN[C@@H](C)C(N)=O)cc2)cc1 [Compound 18o]	> 100 µM	0.325 ± 0.09 µM	253 to 256 °C	> 307	–
CC(NCc1ccc(-c2ccc(C(F)(F)F)cc2)cc1)C(N)=O (stereo not shown) [Compound 19j]	–	–	–	–	IC50 [3]: > 100 µM
C[C@H](NCc1ccc(OCc2cccc(F)c2)cc1)C(N)=O [Safinamide, reference compound]	–	–	–	–	vertical grid test: time to turn [5]: reduced; vertical grid test: total time [5]: reduced
CC(=O)N[C@H]1CC(=O)N(c2ccc(OCc3cccc(F)c3)cc2)C1 [Sembragiline, reference compound]	3.85 µM	0.015 ± 0.005 µM	–	653	IC50 ([4]; positive control, literature value, ref Borroni, E. et al. J. Pharmacol. Exp. Ther. 362, 413–423 (2017)): 0.006 ± 0.001 µM

More lines, main results first:

IC50 [1]	IC50 [2]	melting point	SI (selectivity index), IC50(MAO-A)/IC50(MAO-B) [2]	SMILES	other results
> 100 µM	0.242 ± 0.008 µM	253 to 256 °C	> 413	CC[C@H](NCc1ccc(-c2ccc(C(F)(F)F)cc2)cc1)C(N)=O [Compound 20j]	–
> 100 µM	0.099 ± 0.005 µM	–	> 1,010	CC[C@H](NCc1ccc(-c2ccc(OC(F)(F)F)cc2)cc1)C(N)=O [Compound 20l]	–
> 100 µM	> 10 µM	274 to 278 °C	–	CC(C)[C@H](NCc1ccc(-c2cccc(C(F)(F)F)c2)cc1)C(N)=O [Compound 21i]	–
> 100 µM	4.07 ± 0.15 µM	266 to 267 °C	> 25	CC(C)[C@H](NCc1ccc(-c2ccc(C(F)(F)F)cc2)cc1)C(N)=O [Compound 21j]	–
> 100 µM	> 10 µM	264 to 265 °C	–	CC(C)C[C@H](NCc1ccc(-c2cccc(F)c2)cc1)C(N)=O [Compound 22c]	–
> 100 µM	> 10 µM	239 to 243 °C	–	CC(C)C[C@H](NCc1ccc(-c2cccc(C(F)(F)F)c2)cc1)C(N)=O [Compound 22i]	–
> 100 µM	5.3 ± 0.09 µM	267 to 270 °C	> 19	CC(C)C[C@H](NCc1ccc(-c2ccc(C(F)(F)F)cc2)cc1)C(N)=O [Compound 22j]	–
> 100 µM	> 10 µM	232 to 233 °C	–	CC(C)C[C@H](NCc1ccc(-c2cccc(OC(F)(F)F)c2)cc1)C(N)=O [Compound 22k]	–
> 100 µM	> 10 µM	240 to 242 °C	–	COc1cccc(-c2ccc(CN[C@@H](CC(C)C)C(N)=O)cc2)c1 [Compound 22m]	–
> 100 µM	> 10 µM	252 to 255 °C	–	CCC(C)[C@H](NCc1ccc(-c2cccc(F)c2)cc1)C(N)=O (stereo partly shown) [Compound 23c]	–
> 100 µM	5 to 10 µM	248 to 250 °C	–	CCC(C)[C@H](NCc1ccc(-c2cccc(Cl)c2)cc1)C(N)=O (stereo partly shown) [Compound 23f]	–
> 100 µM	> 10 µM	260 to 262 °C	–	CCC(C)[C@H](NCc1ccc(-c2ccc(Cl)cc2)cc1)C(N)=O (stereo partly shown) [Compound 23g]	–
> 100 µM	5 to 10 µM	263 to 265 °C	–	CCC(C)[C@H](NCc1ccc(-c2cccc(C(F)(F)F)c2)cc1)C(N)=O (stereo partly shown) [Compound 23i]	–
